According to US20130274258A1, “CARBAZOLE AND CARBOLINE DERIVATIVES, AND PREPARATION AND THERAPEUTIC APPLICATIONS THEREOF” (PHILIP MORRIS PRODUCTS S.A., priority 2010, published 2013):

Experiments:
Jurkat cells [1] = assay: Jurkat cell viability, resazurin (Alamar Blue) assay; assay type: cell-based; details: Homo sapiens, Jurkat
Method: The compounds were tested for pharmacological activity. In each of the tests, each compound was tested at […] in duplicates. […] The percentage of response relative to the DMSO control was then calculated for the mean value of the duplicates of each test. The values of the three tests were finally averaged and the standard deviations calculated.
Jurkat cells (10'000 cells/well) were incubated in the presence of various concentrations of compounds, doxorubicin or staurosporine. Twenty-two hours later, cells were incubated with resazurin (20 μg/ml) for 4 hours and fluorescence was measured at 590 nm.

Jurkat cells [2] = assay: Annexin V staining of Jurkat cells by flow cytometry; assay type: cell-based; details: Homo sapiens, 22 hours, 0.005 to 10 μM, read-out: half-maximal annexin V staining
Method: Jurkat cells were cultured for 22 hours in the presence of E3 at 1.1 μM from a stock solution at 10 mM in DMSO or in the presence of graded concentrations of E3 (0.005 to 10 μM). Then, the cell's were stained with phycoerythrin-labeled annexin V following the instructions of the manufacturer (Millipore) and analyzed by flow cytometry (Guava, Millipore) to determine annexin V staining.

melanoma A2058 = assay: Xenograft model in nude mice, melanoma A2058; assay type: in vivo, human
Method: (§1) The compounds of the invention were evaluated in human tumor xenograft mouse models. Nude mice were subcutaneously implanted with tumor cells (melanoma A2058, colon carcinoma HCT116, fibrosarcoma HT1080 and acute myelocytic leukemia MV114) and when the tumor reached a volume of about 100-150 mm^3, treatment was initiated. Tumor growth was followed over time until tumor volume reached 1000-1500 mm^3 or up to 60 days. An example of how tumor developed over time when the animals were administered or not with E3 three times once a week (qwk×3) is presented in FIG. 7. […]

[3] = tested on: acute myelocytic leukemia MV114; assay: Xenograft model in nude mice, acute myelocytic leukemia MV114; assay type: in vivo, human
Method: as §1

colon carcinoma HCT116 = assay: Xenograft model in nude mice, colon carcinoma HCT116; assay type: in vivo, human
Method: as §1

purified porcine tubulin = purified porcine tubulin (Sus scrofa, UniProt P02550+P02554); assay: Inhibition of 3H-labeled colchicine binding to purified tubulin, scintillation proximity assay; details: graded doses
purified porcine tubulin, sequence (P02554 whole entry): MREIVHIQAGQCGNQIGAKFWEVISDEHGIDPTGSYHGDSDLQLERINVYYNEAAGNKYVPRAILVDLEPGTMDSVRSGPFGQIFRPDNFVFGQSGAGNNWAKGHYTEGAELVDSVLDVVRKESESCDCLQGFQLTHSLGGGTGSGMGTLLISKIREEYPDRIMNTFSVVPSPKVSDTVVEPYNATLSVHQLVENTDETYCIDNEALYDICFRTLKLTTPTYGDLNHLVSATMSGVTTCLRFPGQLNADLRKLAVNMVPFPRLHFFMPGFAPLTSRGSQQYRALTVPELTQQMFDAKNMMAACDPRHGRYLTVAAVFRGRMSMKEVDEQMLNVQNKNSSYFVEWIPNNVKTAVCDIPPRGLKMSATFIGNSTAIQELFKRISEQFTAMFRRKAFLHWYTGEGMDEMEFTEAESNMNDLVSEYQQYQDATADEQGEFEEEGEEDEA
purified porcine tubulin, sequence (P02550 whole entry): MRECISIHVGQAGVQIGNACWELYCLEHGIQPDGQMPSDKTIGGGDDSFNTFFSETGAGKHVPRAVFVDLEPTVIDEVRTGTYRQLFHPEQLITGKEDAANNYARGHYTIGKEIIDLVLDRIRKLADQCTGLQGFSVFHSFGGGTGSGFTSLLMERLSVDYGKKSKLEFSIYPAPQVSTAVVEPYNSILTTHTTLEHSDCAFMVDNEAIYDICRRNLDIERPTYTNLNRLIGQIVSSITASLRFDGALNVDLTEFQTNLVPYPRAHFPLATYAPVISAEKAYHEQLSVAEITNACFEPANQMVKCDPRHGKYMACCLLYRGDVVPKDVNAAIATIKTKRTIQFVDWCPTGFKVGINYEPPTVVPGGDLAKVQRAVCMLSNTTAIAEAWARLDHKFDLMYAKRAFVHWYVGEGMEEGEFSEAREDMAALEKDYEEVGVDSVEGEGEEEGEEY
Method: A series of compounds according to the invention and C14 vincristine and colchicine were tested for their capacity to inhibit ^3H-labeled colchicine binding to purified tubulin. Briefly, a limiting amount of tritium-labeled colchicine and graded doses of test compounds were added to purified porcine tubulin. After an incubation period, radioactivity associated with tubulin was determined using a scintillation proximity assay. […] By showing that these compounds interact with the colchicine binding site, it differentiates them from the tubulin inhibitors of the Vinca alkaloid- and taxane-types. The results also indicate that the compounds of the invention can be used in combination with the Vinca alkaloid- and taxane-types of tubulin inhibitors since they bind to a different aspect of tubulin, and likely affect tubulin polymerization via a different mechanism. The results also indicate that the compounds of the invention can be used even in patients who are refractory or non-responsive to other tubulin inhibitors, such as the tubulin inhibitors of the Vinca alkaloid- and taxane-types.

human tumor xenograft = assay: Human tumor xenograft mouse models, summary over models; assay type: in vivo; details: nude mice, three times once a week (qwk×3), FIG. 7
Method: as §1

[4] = Pharmacokinetics after intravenous injection, plasma concentration; assay type: in vivo; details: mice, 15 mg/kg intravenous
Method: The pharmacokinetics of E3 and E35 were investigated. Mice intravenously injected with 15 mg/kg of E3 were bled after 0, 1, 5, 10, 20, 30, 60, 120 and 480 minutes. […] For E35, mice intravenously injected with 30 mg/kg of […] were bled after 0, 1, 5, 10, 20, 30, 60, 120 and 480 minutes. […] Concentration then decreased steadily over the 8 hours of the study. During the first four hours after injection, circulating concentrations of E3 and E35 were found largely similar.

caspase 3 and 7 = assay: Apoptosis induction in Jurkat cells, caspase 3 and 7 assay; assay type: cell-based
Method: Compounds were assessed for their ability to induce apoptosis of Jurkat cells at 2 and 10 micromolar after 4 and 22 hours.
In order to firmly establish that the compounds of the invention cause cytotoxicity through apoptosis, IC50 of five compounds of the invention, doxorubicin and staurosporin were determined in the caspase assays; results are presented in Table 2. Importantly, the IC50 determined in the Alamar Blue and in the caspase assays were largely overlapping.

[5] = tested on: panel of human tumor cell lines; assay: Sensitivity of a panel of human tumor cell lines, Alamar Blue; assay type: cell-based; details: graded doses, 22 hours + 4 hours Alamar Blue
Method: Sensitivity and resistance of a panel of human tumor cell lines to treatment with E3 were investigated. An optimal number of cells (usually between 2'000 and 5'000 for adherent cells and 10'000 for cells growing in suspension) from the different tumor lines were treated with graded doses of E3. After 22 hours, Alamar Blue was added following the instructions provided by the manufacturer (Invitrogen). Four hours later, fluorescence of the wells was determined at 590 nm.

[6] = Solubilization in intravenous formulation; assay type: physicochemical; details: aqueous with cosolvent or surfactant or cyclodextrin; 5% Cremophor and 5% ethanol in water
Source text: This formulation was then used for the subsequent animal studies (maximal tolerated dose, pharmacokinetics and efficacy in cancer models).

fibrosarcoma HT1080 = assay: Xenograft model in nude mice, fibrosarcoma HT1080; assay type: in vivo, human
Method: as §1

[7] = median, endpoint = death or defined tumor volume, 23 without treatment

**Q.** What does the source list for `Cc1nccc2c1[nH]c1ccc(-c3cc(Cl)cc(Cl)c3)cc12` [Example E3, 6-(3,5-dichlorophenyl)-1-methyl-9H-pyrido[3,4-b]indole]?
**A.** IC50 (Jurkat cells [1]): 89 nM; EC50 (Jurkat cells [2]): 100 to 200 nM; % time delay to reach study endpoint relative to no treatment (melanoma A2058; best treatment): 22%; Days to reach study endpoint with best treatment (melanoma A2058; [7]): 28 days; % time delay to reach study endpoint relative to no treatment ([3]; best treatment): 52%; Days to reach study endpoint with best treatment ([3]; median, endpoint = death or defined tumor volume, 21 without treatment): 32 days; % time delay to reach study endpoint relative to no treatment (colon carcinoma HCT116; best treatment): 57%; Days to reach study endpoint with best treatment (colon carcinoma HCT116; [7]): 36 days; inhibition of 3H-labeled colchicine binding to tubulin (purified porcine tubulin): inhibited binding of colchicine; effect on tumor growth (human tumor xenograft): delayed tumor growth; exposure (plasma concentration) for several hours [4]: 3 to 10 µg/mL; concentration at 1 min ([4]; mouse, plasma, 1 minute after injection): 60 µg/mL; concentration at 20 min ([4]; mouse, plasma, 20 minutes): 8000 ng/mL; concentration at 8 h ([4]; mouse, plasma, 8 hours): 3000 ng/mL; caspase 3 and 7 activity compared to solvent control (%) (caspase 3 and 7; 2 μM after 4 h): −13.6%; caspase 3 and 7 activity compared to solvent control (%) (caspase 3 and 7; 2 μM after 22 h): 689.0%; caspase 3 and 7 activity compared to solvent control (%) (caspase 3 and 7; 10 μM after 4 h): 12.7%; caspase 3 and 7 activity compared to solvent control (%) (caspase 3 and 7; 10 μM after 22 h): 743.7%; IC50 (caspase 3 and 7; Homo sapiens, Jurkat cells, caspase 3/7 assay): 0.054 µM; sensitivity of tumor cell lines of hematopoietic origin versus other cell lines [5]: more sensitive than the other cell lines; solubility [6]: ≤ 3300 µg/mL; % time delay to reach study endpoint relative to no treatment (fibrosarcoma HT1080; best treatment): 91%; Days to reach study endpoint with best treatment (fibrosarcoma HT1080; [7]): 44 days
